The results in this text go back to PMC7059793, “Novel Chemical Scaffolds to Inhibit the Neutral Amino Acid Transporter B^0AT1 (SLC6A19), a Potential Target to Treat Metabolic Diseases” (Frontiers in Pharmacology, 2020).

Common to all, as to assay type: cell-based
The target in assay [1] is T1, B^0AT1 (Homo sapiens, UniProt Q695T7).
T1 construct: expressed in transfected cells
T1 sequence (Q695T7 1-634): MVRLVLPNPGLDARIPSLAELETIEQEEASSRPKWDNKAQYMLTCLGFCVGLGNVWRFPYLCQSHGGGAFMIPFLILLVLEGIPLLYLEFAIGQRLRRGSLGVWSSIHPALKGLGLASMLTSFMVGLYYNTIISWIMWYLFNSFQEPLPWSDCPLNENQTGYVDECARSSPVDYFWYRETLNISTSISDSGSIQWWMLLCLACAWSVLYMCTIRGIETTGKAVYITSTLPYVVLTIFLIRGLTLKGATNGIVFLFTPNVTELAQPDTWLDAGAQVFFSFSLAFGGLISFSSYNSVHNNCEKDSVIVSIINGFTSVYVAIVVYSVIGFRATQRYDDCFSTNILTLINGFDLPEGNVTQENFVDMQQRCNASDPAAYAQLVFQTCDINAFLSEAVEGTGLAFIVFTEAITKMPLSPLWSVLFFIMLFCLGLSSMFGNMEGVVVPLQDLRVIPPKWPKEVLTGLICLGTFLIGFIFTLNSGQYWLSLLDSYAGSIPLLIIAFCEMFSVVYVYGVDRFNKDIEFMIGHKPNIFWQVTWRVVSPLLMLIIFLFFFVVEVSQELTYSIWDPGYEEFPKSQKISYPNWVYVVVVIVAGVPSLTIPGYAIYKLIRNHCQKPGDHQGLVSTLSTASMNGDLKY
T1 sequence (Q9HBJ8 15-222 partner): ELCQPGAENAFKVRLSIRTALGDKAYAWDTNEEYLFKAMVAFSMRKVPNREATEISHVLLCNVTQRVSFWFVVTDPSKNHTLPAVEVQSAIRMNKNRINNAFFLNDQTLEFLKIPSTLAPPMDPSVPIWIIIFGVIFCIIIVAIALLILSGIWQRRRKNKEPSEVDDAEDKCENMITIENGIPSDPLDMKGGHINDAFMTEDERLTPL
Briefly: FLIPR assay with inhibitors alone in the absence of substrate (substrate test) in CHO-BC cells. Conditions: 30 μM, baseline 100 RFU. As to the method: Membrane depolarisation induced by amino acid transport was monitored using a FLIPR® kit (Molecular Devices, R8042 BLUE DYE). Before the assay, CHO-BC cells were seeded out at a density of 60,000 cells/well and maintained in a flat transparent bottom 96-well plate (Corning) overnight. After washing three times with Hank’s balanced salt solution (136.6 mM NaCl, 5.4 mM KCl, 0.44 mM KH2PO4, 2.7mM Na2HPO4, 1.26mM CaCl2, 0.5mM MgCl2, 0.4 mM MgSO4, 10mM HEPES, pH 7.5, supplemented with 5 mM glucose, abbreviated HBSS + G), cells in each well were incubated for 30 min at room temperature in 50 µl of HBSS pH 7.5 containing 5 mM glucose and compounds as indicated, together with 50 µl of dye-loading buffer provided with the kit. […] Fluorescence was detected at room temperature using a PerkinElmer multimode Plate Reader, with an excitation wavelength of 530 nm and emission wavelength of 565 nm.
Figure 6 Specificity and efficacy of B^0AT1 inhibitors. […] Although structurally unrelated to the substrates of the transporter, compounds E4, E18, and CB3 are highly specific.

Assay [2] deals with T1, B^0AT1. Briefly: Radioactive flux assay (radiolabelled leucine/isoleucine uptake) in CHO-BC cells. Conditions: 150 μM [14C]leucine or [14C]isoleucine, 6 min, 37°C. As to the method:
CHO-BC cells with passage numbers from 3 to 10 were used in radio-labelled uptake assays. Before the assay, the cells were seeded out in 35 mm dishes (Corning) and maintained for 48–72 h until reaching 80–90% confluence. To initiate transport, the culture medium was removed and the cells washed three times with HBSS + G. Subsequently, cells were incubated with HBSS + G, radiolabelled substrates (150 μM L-[U-^14C]leucine or 150 μM L-[U-^14C]isoleucine) and inhibitors as indicated in the figures or table in a 37°C water bath for 6 min. To terminate transport, cells were washed three times with ice-cold HBSS pH 7.5. For measuring sodium-independent uptake, NaCl in Hank’s buffer was replaced by NMDG-Cl. Cells were then harvested by homogenizing with 500 µl of 0.1 M HCl. An aliquot of 400 µl was used for scintillation counting and the remainder for protein quantification. To investigate inhibition of ASCT2, uptake of 100 μM [^14C]glutamine was measured in 143B cells in the absence and presence of inhibitor (at 10 μM and 50 μM). To measure inhibition of LAT1, uptake of [^14C]leucine was measured in HBSS + G in which NaCl was replaced by NMDG-Cl in 143B cells in the absence and presence of inhibitor (at 10 μM and 50 μM).
(§1) Data are shown as mean ± S.D., transport activities indicated as Na^+-dependent net uptake, were calculated by subtracting the uptake activity in the absence of Na^+ from the total uptake rate. The fluorescent signals measured in the FLIPR assay were normalized to baseline readings before the addition of substrates. Data are presented as percentage of baseline at each time point. IC50 was calculated using the equation: y=ymax(1−[x]/[x]+IC50) .

Assay [3] has as its target T1, B^0AT1. The assay is described as follows: Membrane potential detecting FLIPR assay in CHO-BC cells. Conditions: 30 min pre-incubation, leucine or isoleucine 1.5 mM. On the procedure:
CHO-B^0AT1-collectrin Cells (CHO-BC) were generated, cultured, and used as described recently ([Cheng et al., 2017]). Expression levels of B^0AT1 in CHO-BC cells decline over time. As a result, passages <10 were used for experiments. The cells were maintained in Ham’s F-12 glutamax media with 10% (v/v) fetal bovine serum (FBS, Heat inactivated, 10082147 Gibco), 1mM glutamine, 300μg/ml hygromycin B and 275 μg/ml geneticin.
Membrane depolarisation induced by amino acid transport was monitored using a FLIPR® kit (Molecular Devices, R8042 BLUE DYE). Before the assay, CHO-BC cells were seeded out at a density of 60,000 cells/well and maintained in a flat transparent bottom 96-well plate (Corning) overnight. After washing three times with Hank’s balanced salt solution (136.6 mM NaCl, 5.4 mM KCl, 0.44 mM KH2PO4, 2.7mM Na2HPO4, 1.26mM CaCl2, 0.5mM MgCl2, 0.4 mM MgSO4, 10mM HEPES, pH 7.5, supplemented with 5 mM glucose, abbreviated HBSS + G), cells in each well were incubated for 30 min at room temperature in 50 µl of HBSS pH 7.5 containing 5 mM glucose and compounds as indicated, together with 50 µl of dye-loading buffer provided with the kit. Subsequently, the fluorescence signal was detected every 10 s before and after the addition of leucine or isoleucine at a final concentration of 1.5 mM. Fluorescence was detected at room temperature using a PerkinElmer multimode Plate Reader, with an excitation wavelength of 530 nm and emission wavelength of 565 nm.
as §1

As to `Cc1cc(C(=O)Nc2ccc(Cl)cc2C(F)(F)F)no1` [CB3], the “Fluorescence signal when tested alone (no substrate)” value at B^0AT1 [1] is listed as “did not increase fluorescence above the baseline”. For the same molecule, the IC50 (commonly the point on the concentration scale where inhibition reaches its midpoint) on B^0AT1 [2] is 4.9 ± 0.4 µM; at B^0AT1 [3] it was 1.9 ± 0.6 µM.
In the same order, the values of `Cc1cc(OCC(=O)NC(C)C)cc(C)c1Cl` [Compound E4] are “did not increase fluorescence above the baseline”, 7.7 ± 1.9 µM and 13.7 ± 0.9 µM.
On the same counts, the results for `COc1ccccc1Nc1nc2ccccc2s1` [Compound E18] are “did not increase fluorescence above the baseline”, 3.4 ± 0.3 µM and 4.2 ± 0.9 µM.
